Assay results published in PubChem BioAssay (NCI).
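Method: 48-hour compound exposure of cells in 96-well plates, five concentrations, linear interpolation of endpoints. GI50: concentration for 50% inhibition of growth. TGI: total growth inhibition.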

What was measured:
Test in all cases: DTP human tumour cell line panel, 48 h
A498 renal = tested on: A498 renal
HOP-62 NSCLC = tested on: HOP-62 NSCLC
KM12 colon = tested on: KM12 colon
MALME-3M melanoma = tested on: MALME-3M melanoma
SNB-19 CNS = tested on: SNB-19 CNS
SW-620 colon = tested on: SW-620 colon
U251 CNS = tested on: U251 CNS
CCRF-CEM leukemia = tested on: CCRF-CEM leukemia
HCT-15 colon = tested on: HCT-15 colon
T-47D breast = tested on: T-47D breast

| Compound | TGI (A498 renal) | TGI (HOP-62 NSCLC) | TGI (KM12 colon) | TGI (MALME-3M melanoma) | TGI (SNB-19 CNS) | TGI (SW-620 colon) | TGI (U251 CNS) | TGI (CCRF-CEM leukemia) | TGI (HCT-15 colon) | TGI (T-47D breast) | GI50 (A498 renal) | GI50 (CCRF-CEM leukemia) | GI50 (HOP-62 NSCLC) | GI50 (MALME-3M melanoma) | GI50 (SNB-19 CNS) | GI50 (SW-620 colon) | GI50 (U251 CNS) | GI50 (KM12 colon) | GI50 (HCT-15 colon) | GI50 (T-47D breast) |
| --- | --- | --- | --- | --- | --- | --- | --- | --- | --- | --- | --- | --- | --- | --- | --- | --- | --- | --- | --- | --- |
| Cc1cc(Br)ccc1N=NC1C(=O)ON=C1c1ccccc1 (stereo not given) | > 100 µM | > 100 µM | > 100 µM | > 100 µM | > 100 µM | > 100 µM | > 100 µM |  |  |  |  |  |  |  |  |  |  |  |  |  |
| C/C=C/C(C/C=C(\C)CO[Si](C)(C)C(C)(C)C)O[Si](C)(C)C(C)(C)C (stereo not given) | > 100 µM | > 100 µM | > 100 µM | > 100 µM | > 100 µM | > 100 µM |  | > 100 µM | > 100 µM | > 100 µM |  |  |  |  |  |  |  |  |  |  |
| CC(=O)Nc1ccc(/C=C/C(=O)c2sc(-n3nc(-c4ccccc4)cc3-c3ccccc3)nc2C)cc1 | > 100 µM | > 100 µM | > 100 µM | > 100 µM | > 100 µM | > 100 µM | > 100 µM | > 100 µM |  |  | > 100 µM | > 100 µM | > 100 µM | > 100 µM | > 100 µM | > 100 µM | > 100 µM |  |  |  |
| BrC(/C=N/Nc1nnc(-c2ccccc2)c(-c2ccccc2)n1)C(Br)c1ccccc1 (stereo not given) | > 100 µM | 92.2 µM | > 100 µM | > 100 µM | > 100 µM | > 100 µM | > 100 µM | 94.7 µM | > 100 µM |  |  |  |  |  |  |  |  |  |  |  |
| O=c1ccn([C@@H]2C[C@H](CO)CS(=O)C2)c(=O)[nH]1 (stereo not given in full) | > 100 µM | > 100 µM | > 100 µM | > 100 µM | > 100 µM | > 100 µM | > 100 µM | > 100 µM | > 100 µM |  |  |  |  |  |  |  |  |  |  |  |
| CC(=O)[O-].O=C([CH-]C(=O)c1ccccc1)c1ccccc1.O=C([CH-]C(=O)c1ccccc1)c1ccccc1.[Dy+3] | 61.5 µM | 31.9 µM | > 100 µM | 67.9 µM | 70.3 µM | > 100 µM | > 100 µM |  |  |  | 15.5 µM |  | 6.91 µM | 21.8 µM | 14.8 µM | 7.27 µM | 11.9 µM | 21 µM |  |  |
| N#CC1(C2CC(=O)N(c3ccccc3)C2=O)CCCCC1=O (stereo not given) |  |  | > 100 µM | > 100 µM | > 100 µM | > 100 µM | > 100 µM | > 100 µM | > 100 µM |  |  |  |  |  |  |  |  |  |  |  |
| O=C(Nc1cc(Cl)ccc1Cl)c1cc2ccccc2oc1=O |  | > 100 µM | > 100 µM | 90.3 µM |  | > 100 µM | > 100 µM | > 100 µM | > 100 µM |  |  |  |  |  |  |  |  |  |  |  |
| N#Cc1cccc(C2SCc3nc4ccccc4n32)c1 (stereo not given) | > 100 µM | > 100 µM | > 100 µM | > 100 µM | > 100 µM | > 100 µM | > 100 µM | > 100 µM |  |  |  |  |  |  |  |  |  |  |  |  |
| O=C(/C=C/c1c[nH]c2ccccc12)c1ccccc1O | 28.5 µM | 28.1 µM | 70.1 µM | 29.3 µM | 36.7 µM | 59.7 µM | 40.4 µM |  | 21.7 µM | 7.29 µM |  |  |  |  |  |  |  |  |  |  |
| O=C(NC(=Nc1ccccc1)SCCSC(=Nc1ccccc1)NC(=O)c1ccccc1)c1ccccc1 | > 100 µM | > 100 µM | > 100 µM | > 100 µM | > 100 µM | > 100 µM | > 100 µM | > 100 µM | > 100 µM |  |  |  |  |  |  |  |  |  |  |  |
| C=CN(C(=O)N1CCN(c2cc3c(cc2F)c(=O)c(C(=O)O)cn3C2CC2)CC1)c1nc(-c2ccc(C)cc2)cs1 |  | > 100 µM | > 100 µM | > 100 µM | > 100 µM | > 100 µM | 11.6 µM | > 100 µM | > 100 µM |  |  | 0.438 µM | 3.49 µM | 3.35 µM | 4.16 µM | 4.5 µM | 3.39 µM | 3.45 µM | 2.96 µM |  |
| Cc1nc2ccccc2c(=O)n1/N=C(\N=Nc1ccc(Cl)cc1)c1ccc(N(C)C)cc1 | > 100 µM | > 100 µM |  |  | > 100 µM | > 100 µM |  | > 100 µM | > 100 µM |  |  |  |  |  |  |  |  |  |  |  |
| CN(C)CCCn1c2c(c3ccc(N4CCNCC4)cc3c1=O)C(=O)c1ccccc1-2 |  | 2.64 µM | 3.07 µM | 3.46 µM | 3.23 µM | 1.61 µM | 2.31 µM | 1.94 µM | 3.04 µM | 4.42 µM |  | 0.335 µM | 1.06 µM | 1.42 µM | 0.541 µM | 0.164 µM | 0.639 µM | 1.13 µM | 0.728 µM | 1.55 µM |
| CC1(C)OC2OC(/C=C/[N+](=O)[O-])C3OC(C)(C)OC3C2O1 (stereo not given) | 47.1 µM | 38.3 µM | 31.5 µM | 10.8 µM | 33.5 µM | 9.46 µM | 32.7 µM | > 75.7 µM | 5.43 µM |  |  |  |  |  |  |  |  |  |  |  |
| O=C1C(=C2C(=O)c3ccccc3[N+]2=O)N([O-])c2ccccc21 | 73.8 µM |  |  |  | > 100 µM | 47.5 µM | 53.9 µM | 63.8 µM |  |  |  |  |  |  |  |  |  |  |  |  |
| C=CC(C)(C)[C@@]12CC3C(=O)N[C@@H](Cc4ccccc4)C(=O)N3[C@@H]1N(C(C)=O)c1ccccc12 (stereo not given in full) | > 100 µM | > 100 µM | > 100 µM | > 100 µM | > 100 µM | > 100 µM | > 100 µM | > 100 µM | > 100 µM |  |  |  |  |  |  |  |  |  |  |  |
| Cc1c(Cl)ccc2[s+]snc12 | > 100 µM | > 100 µM | > 100 µM | > 100 µM | > 100 µM | 52.2 µM | 70.2 µM | 82.6 µM | > 100 µM |  |  |  |  |  |  |  |  |  |  |  |
| CC(=O)NNc1nc(C)c(C(=O)NNC(=O)C(=O)Nc2ccc(C)cc2[N+](=O)[O-])s1 | > 100 µM | > 100 µM | > 100 µM | > 100 µM | > 100 µM | > 100 µM | > 100 µM | > 100 µM | > 100 µM |  |  |  |  |  |  |  |  |  |  |  |
| COc1cc(CC2c3cc(OC)c(OC)cc3CCN2C)c(C(=O)O)cc1OC (stereo not given) | > 100 µM | > 100 µM | > 100 µM | > 100 µM | > 100 µM | > 100 µM | > 100 µM | > 100 µM |  |  |  |  |  |  |  |  |  |  |  |  |
| COc1ccc2c(c1)OCC1c3cc(OC)ccc3OC21 (stereo not given) | > 100 µM | > 100 µM | > 100 µM | > 100 µM | > 100 µM | > 100 µM | > 100 µM |  | > 100 µM | > 100 µM | 63.1 µM |  | 95 µM | > 100 µM | > 100 µM | > 100 µM | 58 µM | 43.3 µM | 44.9 µM | 35.4 µM |
